Test results as given in US8901313B2, “6,5-heterocyclic propargylic alcohol compounds and uses therefor” (Genentech, Inc., priority 2011, dated 2014).

Key:
[1] = target: T1, nuclear factor-kappa B (NF-kB)-inducing kinase (NIK) (Homo sapiens, UniProt Q99558); assay: NIK Enzyme Inhibition Assay (Transcreener ADP assay); format: biochemical; conditions: purified NIK 0.2-1 nM, 10 uM ATP, fluorescence polarization, Morrison's quadratic equation; read-out: inhibitory value (Ki) for NIK
T1 construct: made in house; host or cells: baculovirus-infected insect cells

[2] = tested on: NF-kB signaling through NIK in human embryonic kidney 293 cells; assay: 293-NIK NF-kB-Luciferase reporter assay; format: cell-based; conditions: HEK293, 293 cells with tetracycline-inducible NIK, 1 ug/mL doxycycline, 24 hours, read-out: inhibitory value (IC50) for 293-NIK NF-kB-Luciferase activity
Procedure, shortened: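 HEK293 cells stably carrying tetracycline-inducible NIK plus NF-kB (ELAM-1 element) firefly luciferase and constitutive TK-Renilla viability reporter. Compounds (0.2% DMSO) incubated 24 h with 1 ug/mL doxycycline; Dual Glo luminescence read, IC50 from firefly signal.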

[3] = tested on: human embryonic kidney 293 cells; assay: 293-NIK TK Renilla Luciferase reporter (general measure of cell viability); format: cell-based; conditions: HEK293, 293 cells, constitutive Renilla luciferase, 24 hours, read-out: inhibitory value (IC50) for 293-NIK TK Renilla Luciferase activity
Source text: (1) The first assay was used to profile whether a test compound can inhibit the NF-kB signally through NIK inhibition without affecting cell viability. In this assay, human embryonic kidney 293 cells was stably transfected with a tetracycline-inducible NIK DNA construct containing a cytomegalovirus promoter plus two reporter DNA constructs. One reporter encoded firefly luciferase under the control of three repeats of an NF-kB response element from the ELAM-1 gene and reflects the level of NIK activity in the cells, whereas the other reporter constitutively expressed Renilla luciferase under the control of the herpes simplex virus thymidine kinase promoter and served as a general measure of cell viability. Cells were incubated with different concentrations of compounds (0.2% DMSO final) in medium containing 1 ug/mL doxycycline and 10% tet-system approved fetal bovine serum (Clontech) for 24 hours, after which the reporters' signals were detected using the Dual Glo luciferase detection system (Promega) according to the vendor's protocol. The compounds listed in Table 1 have the corresponding inhibitory value (IC50 in micromolar) for 293-NIK NF-kB-Luciferase activity (values for compounds are presented in the same order as found in Table 1): na, 0.059, na, na, na, 0.105, 0.027, na, 20, 1.2, na, 1.8, 0.0231, 0.879, 0.0361, 0.582, na, 0.142, na, 0.403, 0.059, 0.0331, na, na, 0.0573, 1.5, na, na, 0.0722, na, na, 0.589, 12.7, 3.7, 14.9, na, 0.707, 1, 0.0311, 0.332, 0.309, 0.0142, 0.051, 2.8, 0.129, na, na, 1.5, na, na, na, 1.3, 0.062, 20, 0.31, 0.104, 0.091, 0.037, 0.085, 0.279, na, 0.305, 0.064, 0.332, 0.133, 0.168, 0.217, 0.553, na and na.
The compounds in listed in Table 1 have the corresponding inhibitory value (IC50 in micromolar) for 293-NIK TK Renilla Luciferase activity: (values for compounds are presented in the same order as found in Table 1): 6.4, 3.6, 20, na, 1.6, 9.3, 18.5, na, na, 2.6, na, na, na, na, na, na, na, na, na, na, na, na, na, na, na, na, na, na, na, na, na, na, na, na, na, na, na, na, na, na, na, na, na, na, na, na, na, >20, na, na, na, 20, >20, 17, 1.3, 15.6, 0.967, 2.7, 11.2, 5.1, na, 20, 20, 20, 20, 20, 17.6, 20, na and na.

[4] = tested on: p52 (NF-kB2) nuclear translocation in HeLa cells; assay: NIK p52 Translocation Assay (non-classical NF-kB signaling); format: cell-based; conditions: Homo sapiens; HeLa cells, 100 ng/mL anti-lymphotoxin beta receptor antibody, 5 hours; read-out: inhibitory value (IC50) for NIK p52 Translocation Assay
Procedure, shortened: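 HeLa cells in 10% FBS medium were exposed to compound (0.2% DMSO final) and stimulated with 100 ng/mL anti-lymphotoxin β receptor antibody for 5 h. Fixed cells were immunostained for p52 with DRAQ5 counterstain and imaged by high-content imaging. IC50 from nuclear/cytoplasmic p52 signal ratio vs concentration.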

[5] = tested on: REL-A (p65) nuclear translocation in HeLa cells; assay: NIK RelA Translocation Assay (classical NF-kB signaling); format: cell-based; conditions: Homo sapiens; HeLa cells, compounds 4.5 hours, 10 ng/mL TNF-α 30 minutes; read-out: inhibitory value (IC50) for NIK RelA Translocation Assay
Procedure, shortened: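 HeLa cells in 10% FBS medium were preincubated 4.5 h with compound (0.2% DMSO final), then stimulated with 10 ng/mL TNF-α for 30 min. After fixation, anti-REL-A (p65) immunostaining and DRAQ5 nuclear stain, high-content imaging gave the nuclear/cytoplasmic intensity ratio; IC50 from signal versus concentration.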

T1 sequence (Q99558 whole entry): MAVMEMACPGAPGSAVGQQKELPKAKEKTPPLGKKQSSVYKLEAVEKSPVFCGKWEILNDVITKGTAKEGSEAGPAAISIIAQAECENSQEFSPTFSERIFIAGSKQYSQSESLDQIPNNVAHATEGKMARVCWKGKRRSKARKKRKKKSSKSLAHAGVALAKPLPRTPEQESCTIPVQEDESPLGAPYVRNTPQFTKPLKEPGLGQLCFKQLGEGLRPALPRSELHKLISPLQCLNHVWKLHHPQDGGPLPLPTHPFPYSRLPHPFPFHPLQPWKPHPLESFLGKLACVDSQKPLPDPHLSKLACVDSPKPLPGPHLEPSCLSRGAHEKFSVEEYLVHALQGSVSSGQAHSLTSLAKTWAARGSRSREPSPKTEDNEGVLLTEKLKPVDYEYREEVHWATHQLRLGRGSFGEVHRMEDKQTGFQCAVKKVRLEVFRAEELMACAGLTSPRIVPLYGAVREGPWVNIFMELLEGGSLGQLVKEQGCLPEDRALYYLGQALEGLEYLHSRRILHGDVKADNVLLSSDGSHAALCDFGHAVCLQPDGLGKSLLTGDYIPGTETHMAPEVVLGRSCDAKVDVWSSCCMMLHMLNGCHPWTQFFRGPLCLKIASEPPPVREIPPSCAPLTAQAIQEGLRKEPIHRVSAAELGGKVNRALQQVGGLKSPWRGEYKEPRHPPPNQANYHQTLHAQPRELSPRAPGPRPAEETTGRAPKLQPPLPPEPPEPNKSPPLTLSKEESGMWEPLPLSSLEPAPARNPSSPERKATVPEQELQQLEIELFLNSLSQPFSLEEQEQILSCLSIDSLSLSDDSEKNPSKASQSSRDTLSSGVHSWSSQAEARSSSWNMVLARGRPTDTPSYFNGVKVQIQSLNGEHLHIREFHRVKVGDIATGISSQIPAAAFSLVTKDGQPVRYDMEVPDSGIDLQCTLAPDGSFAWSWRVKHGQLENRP

Ki [1]: 2.2 nM | IC50 [5]: 1000 nM
SMILES: Cc1cc(C(C)(O)C#Cc2ccc3nc(C4CC4)n(-c4ncnc(N)n4)c3c2)no1 (centres unmarked) [Example T1-60, 4-(1-(4-amino-1,3,5-triazin-2-yl)-2-cyclopropyl-1H-benzo [d]imidazol-6-yl)-2-(5-methyl-isoxazol-3-yl)but-3-yn-2-ol]
IC50 [2]: 279 nM | IC50 [3]: 5100 nM | IC50 [4]: 552 nM
